Laboratory results reported in ChEMBL document CHEMBL1127273, “Novel cholecystokinin receptor ligands: Oxopiperazines derived from Boc-CCK-4” (Bioorg Med Chem Lett, 1994).
pIC50: −log10 of the molar value. Residues, ends and D or L forms follow the SMILES beside them. *: point of attachment. NHPhenethyl = c1ccc(CCN*)cc1; Boc = CC(C)(C)OC(=O)*

What was measured:
[1] = target: Cholecystokinin receptor (Mus musculus) (UniProt O08786+P56481); experiment: Ratio of CCK-A receptor to CCK-B receptor was determined; type: protein assay
[2] = target: T1, Gastrin/cholecystokinin type B receptor (Mus musculus, UniProt P56481); experiment: Concentration producing half-maximal inhibition of specific binding of [125I]- CCK-8 to CCK receptors mouse forebrain membranes (CCK-B); type: tissue-based, Brain
T1 sequence (P56481 whole entry): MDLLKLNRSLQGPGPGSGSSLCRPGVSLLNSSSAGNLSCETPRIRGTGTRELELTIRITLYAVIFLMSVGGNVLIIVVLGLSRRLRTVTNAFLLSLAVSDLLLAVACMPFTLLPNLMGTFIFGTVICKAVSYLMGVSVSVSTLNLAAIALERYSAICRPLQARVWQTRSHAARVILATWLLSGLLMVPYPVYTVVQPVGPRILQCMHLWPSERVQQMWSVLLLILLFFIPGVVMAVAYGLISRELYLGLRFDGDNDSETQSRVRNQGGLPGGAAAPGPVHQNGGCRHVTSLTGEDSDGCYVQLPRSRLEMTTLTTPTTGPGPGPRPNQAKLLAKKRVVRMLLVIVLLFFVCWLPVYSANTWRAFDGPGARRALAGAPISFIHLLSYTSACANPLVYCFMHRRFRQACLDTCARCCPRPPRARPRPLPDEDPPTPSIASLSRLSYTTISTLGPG

[3] = target: T2, Cholecystokinin receptor type A (Mus musculus, UniProt O08786); experiment: Concentration producing half-maximal inhibition of specific binding of [125I]- CCK-8 to CCK receptors on mouse pancreatic membranes (CCK-A)
T2 sequence (O08786 whole entry): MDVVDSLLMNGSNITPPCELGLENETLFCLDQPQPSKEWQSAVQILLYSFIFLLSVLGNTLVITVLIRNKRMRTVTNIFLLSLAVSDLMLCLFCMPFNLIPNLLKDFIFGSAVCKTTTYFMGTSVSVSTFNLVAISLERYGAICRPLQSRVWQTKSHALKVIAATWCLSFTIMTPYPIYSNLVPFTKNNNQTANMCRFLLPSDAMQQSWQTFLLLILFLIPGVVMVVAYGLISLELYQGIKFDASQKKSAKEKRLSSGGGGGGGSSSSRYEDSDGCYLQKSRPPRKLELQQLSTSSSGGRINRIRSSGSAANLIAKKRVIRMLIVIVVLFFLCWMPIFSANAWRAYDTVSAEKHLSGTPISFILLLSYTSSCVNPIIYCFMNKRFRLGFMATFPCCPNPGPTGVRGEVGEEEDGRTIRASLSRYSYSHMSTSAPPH

Ratio [1]	pIC50 [2]	pIC50 [3]	Structure (SMILES)
6	5.92	5.14	CCCC[C@H](NC(=O)Cc1c[nH]c2ccccc12)C(=O)N1C[C@H](Cc2ccccc2)NC(=O)[C@@H]1CC(=O)O
10			CC(C)C[C@H](NC(=O)[C@H](Cc1c[nH]c2ccccc12)NC(=O)OC(C)(C)C)C(=O)N[C@@H](CC(=O)O)C(=O)NCCc1ccccc1 (Boc-Trp-Leu-Asp-NHPhenethyl)
	< 4.00	6.28	CC(C)C[C@H](NC(=O)[C@H](Cc1c[nH]c2ccccc12)NC(=O)/C=C/c1ccccc1)C(=O)N1CC(=O)N[C@@H](Cc2ccccc2)C1
3.4	4.82	4.29	CC(C)C[C@H](NC(=O)[C@@H](N)Cc1c[nH]c2ccccc12)C(=O)N1C[C@H](Cc2ccccc2)NC(=O)[C@@H]1CC(=O)O
1	5.03	5.03	CC(C)C[C@H](NC(=O)[C@H](Cc1c[nH]c2ccccc12)NC(=O)OC(C)(C)C)C(=O)N1C[C@H](c2ccccc2)NC(=O)[C@@H]1CC(=O)O
0.0036	4.74	7.19	CC(C)C[C@H](NC(=O)[C@H](Cc1c[nH]c2ccccc12)NC(=O)OCc1ccccc1)C(=O)N1CC(=O)N[C@@H](Cc2ccccc2)C1
5.2	5.60	4.89	CC(C)C[C@H](NC(=O)Cc1c[nH]c2ccccc12)C(=O)N1C[C@H](Cc2ccccc2)NC(=O)[C@@H]1CC(=O)O
0.38	5.13	5.55	CC(C)C[C@H](NC(=O)[C@H](Cc1c[nH]c2ccccc12)NC(=O)OC(C)(C)C)C(=O)N1C[C@H](Cc2ccccc2)NC(=O)[C@H]1CC(=O)O (mixture of isomers)
0.014	4.21	6.08	CC(C)C[C@H](NC(=O)[C@H](Cc1c[nH]c2ccccc12)NC(=O)OC(C)(C)C)C(=O)N1C[C@H](Cc2ccccc2)NC(=O)[C@@H]1CC(=O)O
0.0009	4.82	7.85	CC(C)C[C@H](NC(=O)[C@H](Cc1c[nH]c2ccccc12)NC(=O)OCc1ccccc1)C(=O)N1CC(=O)N[C@H](Cc2ccccc2)C1
0.011	4.42	6.37	CCOC(=O)N[C@@H](Cc1c[nH]c2ccccc12)C(=O)N[C@@H](CC(C)C)C(=O)N1CC(=O)N[C@@H](Cc2ccccc2)C1
0.077	5.09	6.20	CC(C)C[C@H](NC(=O)[C@H](Cc1c[nH]c2ccccc12)NC(=O)OC(C)(C)C)C(=O)N1C[C@H](CCc2ccccc2)NC(=O)[C@@H]1CC(=O)O
0.09	4.15	5.20	CC(C)C[C@H](NC(=O)[C@H](Cc1c[nH]c2ccccc12)NC(=O)OC(C)(C)C)C(=O)N1C[C@@H](Cc2ccccc2)NC(=O)[C@H]1CC(=O)O
0.21	4.77	5.44	CC(C)C[C@H](NC(=O)[C@H](Cc1c[nH]c2ccccc12)NC(=O)OC(C)(C)C)C(=O)N1C[C@@H](Cc2ccccc2)NC(=O)[C@@H]1CC(=O)O
6.3	5.05	4.25	CC(C)C[C@H](NC(=O)CCc1c[nH]c2ccccc12)C(=O)N1C[C@H](Cc2ccccc2)NC(=O)[C@@H]1CC(=O)O
	< 4.00	5.85	CCCC[C@H](NC(=O)c1c[nH]c2ccccc12)C(=O)N1C[C@H](Cc2ccccc2)NC(=O)[C@@H]1CC(=O)O
2.4	5.00	4.62	CC(C)C[C@H](NC(=O)C(NC(=O)OC(C)(C)C)c1ccccc1)C(=O)N1CC(=O)N[C@@H](Cc2ccccc2)C1 (stereo not given in full)

Structure (SMILES)	Ratio [1]	pIC50 [2]	pIC50 [3]
CC(C)C[C@H](NC(=O)[C@H](Cc1c[nH]c2ccccc12)NC(=O)OC(C)(C)C)C(=O)N1CC(=O)N[C@@H](Cc2ccccc2)C1	0.0073	4.43	6.57
CC(C)C[C@H](NC(=O)[C@@H](Cc1c[nH]c2ccccc12)NC(=O)OC(C)(C)C)C(=O)N1CC(=O)N[C@@H](Cc2ccccc2)C1		< 4.00	5.26
CC(C)C[C@H](NC(=O)[C@H](Cc1c[nH]c2ccccc12)NC(=O)OC(C)(C)C)C(=O)N1CC(=O)N[C@H](Cc2ccccc2)C1	0.0012	4.41	7.34
